One series has as its system Malassezia spp. The settings on record: cited from earlier work.
For series [1] the following is noted: in vivo; cited from earlier work.
The conditions of series [2]: from package insert; cited from earlier work.
A further series concerns fungal microbiota. Briefly: Fungal microbiota in stool of antifungal-treated mice (ITS1 sequencing). It is filed as in vivo. The settings on record: 3 weeks in drinking water, stool DNA. The method, then: (§1) FIG. 24A-24D Antifungal treatment affects bacterial and fungal microbiota in mice. Mice were treated or not for 3 weeks with fluconazole or amphotericin B in their drinking water, DNA was isolated from stool, and fungal and bacterial communities were assessed by sequencing ITS1 and 16S rDNA regions respectively. […] D) Examples of bacteria (families) regulated upon antifungal treatment. * p<0.05; ** p<0.01; *** p<0.001; LDA scores from LEfSe analysis.
(§2) We will investigate the impact of antifungal therapy on the mucosa-associated microbiota in patients by examining samples collected before and after anti-fungal therapy. We will investigate the association between the mycobiota detected by high-throughput ITS (fungal) and 16S (bacterial) rDNA sequencing as well as targeted quantitative PCR in colonic washes, biopsies, and fecal samples. In preliminary studies in mice, we have observed that oral treatment with antifungal drugs (we have tried several) alters the fungal microbiota in fecal samples, which is, of course, not surprising (FIGS. 24A&C), but it also affects the bacterial microbiota (FIGS. 24B&D). The interrelationship between bacterial and fungal microbiota and the susceptibility of these communities to manipulation by antifungal drugs in mice is being further studied in other funded work. […]

The subject of series [3] is acute colitis induced by DSS in wild type and Clec7a−/− mice. The series is described as follows: DSS colitis in wild type and Dectin-1-deficient (Clec7a-/-) mice treated with fluconazole. It is filed as in vivo. The settings on record: DSS in drinking water. The text has this:
DSS colitis in Dectin-1-deficient mice: The inventors examined whether defective immune recognition of fungi could have an impact on colitis and looked at the effects of inducing acute colitis in mice lacking Dectin-1 (Clec7a−/−). The inventors co-housed wild type and Clec7a−/− mice for two weeks before inducing acute colitis by administration of 3% DSS in the drinking water. […] Consistent with the histology, the inventors detected augmented production of IFN-γ and IL-17 in mesenteric lymph nodes (MLNs) and colons from Clec7a−/− mice (FIG. 12D, 12E). Furthermore, in colons of Clec7a−/− mice the inventors detected increased message for TNF-α, IL-23p19 and IL-17a, cytokines previously associated with intestinal inflammation (Not shown).

The subject of the next series is Malassezia. Briefly: Malassezia levels in stool of mice after oral fluconazole (rDNA sequencing). It is filed as in vivo. The settings on record: oral fluconazole for 1 week. The method, then:
FIG. 22 depicts Efficacy of azole drug on colonic Malassezia in mice. Mice were treated with oral fluconazole for 1 week, and Malassezia levels were measured in the stool by rDNA sequencing.

The test system of another series is bacterial microbiota. Briefly: Bacterial microbiota in stool of antifungal-treated mice (16S rDNA sequencing). It is filed as in vivo. Particulars: 3 weeks in drinking water, stool DNA. As to the method: as §1, §2

`CC[C@@H]([C@H](C)O)n1ncn(-c2ccc(N3CCN(c4ccc(OC[C@@H]5CO[C@@](Cn6cncn6)(c6ccc(F)cc6F)C5)cc4)CC3)cc2)c1=O` [posaconazole]: the “MIC against most Malassezia spp.” value with Malassezia spp. is “low”. For the same compound, in series [1], the concentration in feces entry was “high” and the first pass effect result was “low”. Further, the “common adverse events in clinical trials” value in series [2] is “diarrhea, dyspepsia, nausea, fever, headache, coughing, and hypokalemia”.
For the compound `OC(Cn1cncn1)(Cn1cncn1)c1ccc(F)cc1F` [fluconazole], in the series with fungal microbiota, the “effect on fungal microbiota (ITS1 sequencing)” value is reported as “alter the fungal community”. Further, the values for the effect on colitis result in series [3] (Dectin-1 knockout (Clec7a−/−) animals) and in series [3] (wild type animals) were “abrogated colitis” and “little or no effect”, respectively. Moreover, the “Malassezia levels in the stool” value in the series on Malassezia is “depletion of Malassezia from the stool”. In addition, the “effect on bacterial microbiota (16S sequencing, LEfSe)” value in the series with bacterial microbiota is given as “changes in bacterial microbiota”.
With `C[C@@H]1[C@H](O)[C@@H](C)/C=C/C=C/C=C/C=C/C=C/C=C/C=C/[C@H](O[C@@H]2O[C@H](C)[C@@H](O)[C@H](N)[C@@H]2O)C[C@@H]2O[C@](O)(C[C@@H](O)C[C@@H](O)[C@H](O)CC[C@@H](O)C[C@@H](O)CC(=O)O[C@H]1C)C[C@H](O)[C@H]2C(=O)O` [amphotericin B], in the series on fungal microbiota, the “effect on fungal microbiota (ITS1 sequencing)” value is “alter the fungal community”. Besides, the “effect on bacterial microbiota (16S sequencing, LEfSe)” value with bacterial microbiota is “changes in bacterial microbiota”.

Values taken from US20220260565A1, “METHODS OF TREATING AND DIAGNOSING INFLAMMATORY BOWEL DISEASE” (priority 2018, published 2022).
